Blank lines part the entries; values can stand above or below the molecule they belong to. Activity calls are given as the source filed them. No cut-off for these calls is given here.
What was measured:
[1] = Drug uptake in human A549 cells assessed as increase in fluorescence ratio at 5 uM treated with SO2 for 1 hr by confocal microscopic analysis; assay type: ADME, cell-based; conditions: a549, 1 h
Mus musculus [2] = species: Mus musculus; test: Cardioprotective activity against myocardial infarction male C57BL mouse assessed as increase in BCL-2 expression in peri-ischemic region by Western blot analysis; assay type: functional, organism-based
[3] = Drug uptake in human A549 cells assessed as increase in green channel at 5 to 100 uM pretreated with NaHSO3 for 1 hr followed by SO2 for 1 hr by confocal microscopic analysis; assay type: ADME, cell-based; conditions: a549, 2 h, dose 5-100 µM
L02 = test: Cytotoxicity against human LO2 cells assessed as reduction in cell viability at 100 uM incubated for 48 hrs by CCK-8 assay; assay type: toxicity, cell-based; conditions: l02, 48 h
Mus musculus [4] = species: Mus musculus; test: Cardioprotective activity against myocardial infarction male C57BL mouse assessed as […] in apoptosis by TUNEL staining based analysis; assay type: functional, organism-based
H9c2 [5] = test: Cytotoxicity against rat H9c2 cells at 80 uM incubated for 48 hrs by CCK-8 assay; assay type: toxicity, cell-based; conditions: h9c2, 48 h
[6] = Photostability of compound in human A549 cells at 5 uM measured within 3 min in the presence of light-irradition; assay type: ADME, cell-based; conditions: a549, 0.05 h
H9c2 [7] = test: Cardioprotective activity against H2O2 induced rat H9c2 cells assessed as production of BCL-2 protein at 0 to 50 uM preincubated with compound for 1 hr followed by H2O2 addition for 0.5 hr by Western blot analysis; assay type: functional, cell-based; conditions: dose 0-50 µM, time 90.0 min
H9c2 [8] = test: Cardioprotective activity against H2O2 induced rat H9C2 cells assessed as increase in green fluorescence at 5 to 50 uM preincubated with compound for 1 hr followed by H2O2 addition for 0.5 hr by confocal microscopic analysis; assay type: functional, cell-based; conditions: dose 5-50 µM, time 90.0 min
[9] = Drug localization in mitochondria of human A549 cells assessed as colocalization incubated for 20 mins by MitoTracker Green staining based analysis; assay type: ADME; conditions: a549, 20 min
[10] = Drug uptake in human A549 cells assessed as decrease in red channel at 5 uM treated with SO2 incubated for 1 hr by confocal microscopic analysis; assay type: ADME, cell-based; conditions: a549, 1 h
Mus musculus [11] = species: Mus musculus; test: Cardioprotective activity against myocardial infarction male C57BL mouse assessed as decrease in tissue structure by HE staining based analysis; assay type: functional, organism-based
[12] = Drug uptake in human A549 cells assessed as increase in fluorescence ratio at 5 uM pretreated with NaHSO3 for 1 hr followed by SO2 for 1 hr by confocal microscopic analysis; assay type: ADME, cell-based; conditions: a549, 2 h
[13] = Drug localization in golgi body of human A549 cells assessed as colocalization incubated for 20 mins by Golgi-Tracker Green staining based analysis; assay type: ADME, subcellular; conditions: a549, 20 min
[14] = Drug localization in endoplasmic reticulum of human A549 cells assessed as colocalization incubated for 20 mins by ER-Tracker Green staining based anlaysis; assay type: ADME, subcellular; conditions: a549, 20 min
[15] = Drug uptake in human A549 cells assessed as increase in green channel at 5 uM treated with SO2 for 1 hr by confocal microscopic analysis; assay type: ADME, cell-based; conditions: a549, 1 h
[16] = Drug localization in nucleus of human A549 cells assessed as colocalization incubated for 20 mins by […] staining based analysis; assay type: ADME, subcellular; conditions: a549, 20 min
[17] = Drug uptake in human A549 cells assessed as decrease in red channel at 5 to 100 uM pretreated with NaHSO3 for 1 hr followed by SO2 for 1 hr by confocal microscopic analysis; assay type: ADME, cell-based; conditions: a549, 2 h, dose 5-100 µM
[18] = Drug localization in lysosomes of human A549 cells assessed as colocalization incubated for 20 mins by lysoTracker Green DND-26 staining based analysis; assay type: ADME, subcellular, Lysosome; conditions: a549, 20 min
H9c2 [19] = test: Cardioprotective activity against H2O2 induced rat H9c2 cells assessed as decrease in red fluorescence at 5 to 50 uM preincubated with compound for 1 hr followed by H2O2 addition for 0.5 hr by confocal microscopic analysis; assay type: functional, cell-based; conditions: dose 5-50 µM, time 90.0 min
Mus musculus [20] = species: Mus musculus; test: Cardioprotective activity against myocardial infarction male C57BL mouse assessed as increase in BCL-2 expression in ischemic region by Western blot analysis; assay type: functional, organism-based
Mus musculus [21] = species: Mus musculus; test: Cardioprotective activity against myocardial infarction male C57BL mouse assessed as decrease in cardiac fibrosis by Masson staining based analysis; assay type: functional, organism-based
A549 = test: Cytotoxicity against human A549 cells assessed as reduction in cell viability at 100 uM incubated for 48 hrs by CCK-8 assay; assay type: functional, cell-based
[22] = Drug uptake in male C57BL mouse model assessed as increase in fluorescence signal in apex cordis at 25 mg/kg; assay type: ADME, organism-based, Apex of heart; conditions: in vivo
H9c2 [23] = test: Cardioprotective activity against H2O2 induced rat H9c2 cells preincubated with compound for 1 hr followed by H2O2 addition for 0.5 hr by confocal microscopic analysis; assay type: functional, cell-based; conditions: time 90.0 min

Drug uptake [1]: Active | Drug uptake [3]: Active | Stability [6]: Stable | Drug uptake [9]: Not Active | Drug uptake [10]: Active | Drug uptake [12]: Active | Drug uptake [13]: Not Active | Drug uptake [14]: Active | Drug uptake [15]: Active | Drug uptake [16]: Not Active | Drug uptake [17]: Active | Drug uptake [18]: Not Active
Compound: O=S(=O)([O-])CCCC[n+]1c(/C=C/c2ccc(N(c3ccccc3)c3ccccc3)cc2)sc2ccccc21
Activity (Mus musculus [2]): Active | Activity (L02): Non-Toxic | Activity (Mus musculus [4]): Active | Activity (H9c2 [5]): Non-Toxic | Activity (H9c2 [7]): Active | Activity (H9c2 [8]): Active | Activity (Mus musculus [11]): Active | Activity (H9c2 [19]): Active | Activity (Mus musculus [20]): Active | Activity (Mus musculus [21]): Active | Activity (A549): Active

Drug uptake [22]: Active
Compound: O=S(=O)([O-])CCCC[n+]1c(CC(c2ccc(N(c3ccccc3)c3ccccc3)cc2)S(=O)(=O)[O-])sc2ccccc21.[Na+] (stereo unspecified)
Activity (H9c2 [5]): Non-Toxic | Activity (H9c2 [23]): inactive

Reference: ChEMBL document CHEMBL6071145, “A novel theranostic strategy for myocardial infarction through neutralization of endogenous SO2 using an endoplasmic reticulum-targeted fluorescent probe” (Eur J Med Chem, 2024)
